{
  "source": "ChEMBL document CHEMBL5728931",
  "about": "“Inhibitors of phosphoglycerate dehydrogenase (PHGDH) and uses thereof” (2022)",
  "target": "T1, D-3-phosphoglycerate dehydrogenase (Homo sapiens, UniProt O43175)",
  "T1 sequence (O43175 whole entry)": "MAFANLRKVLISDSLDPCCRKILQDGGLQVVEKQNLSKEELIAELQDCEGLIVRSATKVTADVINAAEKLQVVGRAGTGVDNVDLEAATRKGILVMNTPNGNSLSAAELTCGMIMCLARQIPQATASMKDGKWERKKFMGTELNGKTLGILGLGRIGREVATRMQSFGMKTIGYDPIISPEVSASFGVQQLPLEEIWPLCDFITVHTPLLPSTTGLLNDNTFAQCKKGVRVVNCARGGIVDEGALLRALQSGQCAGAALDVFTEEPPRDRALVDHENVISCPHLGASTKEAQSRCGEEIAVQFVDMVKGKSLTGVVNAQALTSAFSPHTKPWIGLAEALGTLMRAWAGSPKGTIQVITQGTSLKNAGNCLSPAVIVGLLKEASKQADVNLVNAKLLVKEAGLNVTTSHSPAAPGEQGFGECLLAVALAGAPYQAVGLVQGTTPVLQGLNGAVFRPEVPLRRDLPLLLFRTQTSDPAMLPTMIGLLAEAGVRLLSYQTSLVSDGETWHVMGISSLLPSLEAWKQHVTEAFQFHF",
  "assay": "Enzyme Assay: PHGDH assay buffer contained 50 mM TEA pH 8.0, 10 mM MgCl2, 0.05% BSA, and 0.01% Tween-20. PHGDH enzyme buffer consisted of assay buffer with 20 nM PHGDH and 0.2 mg/mL diaphorase. PHGDH substrate buffer contained 0.3 mM NAD 1.25 mM glutamate, 0.1 mM 3-phosphoglycerate, 0.2 mM resazurin, 1 μM PSAT1, and 1 μM PSPH. qHTS was performed in 1536-well plates dispensed with a BioRAPTR FRD. Each well contained equal volumes of substrate buffer […]. Plates were read at 0 minutes and 20 minutes at room temperature with a ViewLux uHTS Microplate Imager (PerkinElmer). Follow-up assays were performed in black 384-well plates (Greiner) in 20 μL of enzyme buffer to which compounds were added in dose-response with an HP D300 digital dispenser (Hewlett-Packard), followed by addition of 20 μL of substrate buffer. Plates were incubated at room temperature (25° C.) and read at 0 and 20 minutes with a Spectramax M5 plate reader (Molecular Devices) in fluorescence intensity mode with a λex=550 nm and λem=600 nm (emission cutoff=590 nm).",
  "data": [
    {"smiles": "Cc1cc(C)nc(NC(=S)N2CCN(c3cncnc3)CC2)c1", "values": [
      {"measurement": "IC50", "value": "> 20", "unit": "µM"}
    ]}
  ]
}
